Bridges are numbered along the chain shown (N, C = ends). Where no end group is shown, it is not given here.
Columns and labels:
[1] = system: A549 cells (HAdV-C5 virions); test: 35S-labeled HAdV-C5 virion binding to A549 cells; assay type: cell-based, Human; conditions: at this concentration (2 μM), Fig. 1C
Procedure: A549 cells were detached using phosphate-buffered saline (PBS) plus 0.05% EDTA with slow rocking at 37°C. Once detached, the cells were centrifuged at 1,500 × g for 5 min, resuspended in growth medium to about 2 × 10^6 cells/ml, and allowed to recover at 37°C, slowly rocking to keep the cells in suspension. While recovering, the HAdV-Lfcin complex was set up. Lfcin (2 μM), or an equivalent volume of PBS, was mixed with ^35S-labeled HAdV (15,000 particles/cell) in medium and left on ice at 4°C for 60 min. After 60 min of recovery, the cells were counted, and 150,000 viable cells were added to each well of a 96-V-shaped-well plate and centrifuged for 5 min at 1,500 × g. Once pelleted, the cells were resuspended in the HAdV-Lfcin solution or in HAdV-PBS solution and incubated on ice for 60 min at 4°C. After 60 min, the cells were pelleted and washed once in medium and once in PBS before the addition of scintillation fluid and quantification using a Wallac 1450 Microbeta counter (Trilux).

[2] = system: human respiratory epithelial A549 cells (HAdV-C5_GFP); test: HAdV-C5_GFP transduction of A549 cells; assay type: cell-based; conditions: at this concentration (2 μM), Fig. 1D
Source text: For all transduction experiments, GFP-expressing vectors were used. The HAdV_GFP vector was purchased from Vector Development Laboratory. All mutated HAdV-C5 vectors were generated in the laboratory of A. Plückthun at the University of Zürich using the AdEasy system (Agilent) to contain an internal ribosome entry site (IRES)-luciferase (Luc)-GFP cassette for detection of transduction. To investigate the role of integrins in transduction, HAdV-C5-IRES-GFP with an intact RGD loop in the penton base protein (-DMNDHAIRGDTFATRAE-) and HAdV-C5-ΔRGD-IRES-GFP (-DMNDTSRAEEKRAE-), known not to bind integrins ([40]), were generated. To determine the binding site for hLF/hLfcin on the hexon protein, hexon-mutated vectors were produced with HVR-1 of HAdV-C5 ([43]) replaced with the corresponding sequence of HAdV-A31, as well as a HAdV-C5 vector mutated in HVR-7 ([44]).
For experiments in A549 cells, 15,000 cells were seeded into a black 96-well plate with a transparent bottom. For experiments with CHO-K1 cells, 20,000 cells were seeded. After 24 h, HAdV-C5 vectors was complexed with 2 μM Lfcin or with ∼12 μM (1 mg/ml) of LF and, after 60 min, added to the cells on ice. The blocking of CAR using soluble HAdV-C5 fiber knob was performed using 10 μg/ml of recombinant knob. After another 60 min, unbound complex was washed away using Dulbecco’s modified Eagle’s medium (DMEM), followed by final addition of fresh medium. After 44 h, the cells were fixed using 4% paraformaldehyde (PFA) for 10 min, and GFP expression was imaged using a Trophos system (Luminy Biotech Entreprises). For the hexon chimeric viruses, transduction was instead quantified by measuring the luciferase activity at 44 h postinfection using a Pierce luciferase glow assay kit.

[3] = target: T1, HAdV-C5 hexon (Human adenovirus C serotype 5, UniProt P04133); test: Surface plasmon resonance, HAdV-C5 hexon immobilized; assay type: binding; conditions: SPR Biacore T200, HAdV-C5 hexon on CM5 chip, analyte hLfcin1-49, 2-fold series 8 nM to 2 μM, HBS-EP+ pH 7.4, 25°C; average from three independent measurements
T1 construct: the top phase containing soluble viral components was recovered, and HAdV hexons were purified using monoclonal hexon antibodies; made in house; host or cells: A549 cells infected with wild-type HAdV-C5 (strain Ad75)
T1 sequence (P04133 2-952 limits assumed): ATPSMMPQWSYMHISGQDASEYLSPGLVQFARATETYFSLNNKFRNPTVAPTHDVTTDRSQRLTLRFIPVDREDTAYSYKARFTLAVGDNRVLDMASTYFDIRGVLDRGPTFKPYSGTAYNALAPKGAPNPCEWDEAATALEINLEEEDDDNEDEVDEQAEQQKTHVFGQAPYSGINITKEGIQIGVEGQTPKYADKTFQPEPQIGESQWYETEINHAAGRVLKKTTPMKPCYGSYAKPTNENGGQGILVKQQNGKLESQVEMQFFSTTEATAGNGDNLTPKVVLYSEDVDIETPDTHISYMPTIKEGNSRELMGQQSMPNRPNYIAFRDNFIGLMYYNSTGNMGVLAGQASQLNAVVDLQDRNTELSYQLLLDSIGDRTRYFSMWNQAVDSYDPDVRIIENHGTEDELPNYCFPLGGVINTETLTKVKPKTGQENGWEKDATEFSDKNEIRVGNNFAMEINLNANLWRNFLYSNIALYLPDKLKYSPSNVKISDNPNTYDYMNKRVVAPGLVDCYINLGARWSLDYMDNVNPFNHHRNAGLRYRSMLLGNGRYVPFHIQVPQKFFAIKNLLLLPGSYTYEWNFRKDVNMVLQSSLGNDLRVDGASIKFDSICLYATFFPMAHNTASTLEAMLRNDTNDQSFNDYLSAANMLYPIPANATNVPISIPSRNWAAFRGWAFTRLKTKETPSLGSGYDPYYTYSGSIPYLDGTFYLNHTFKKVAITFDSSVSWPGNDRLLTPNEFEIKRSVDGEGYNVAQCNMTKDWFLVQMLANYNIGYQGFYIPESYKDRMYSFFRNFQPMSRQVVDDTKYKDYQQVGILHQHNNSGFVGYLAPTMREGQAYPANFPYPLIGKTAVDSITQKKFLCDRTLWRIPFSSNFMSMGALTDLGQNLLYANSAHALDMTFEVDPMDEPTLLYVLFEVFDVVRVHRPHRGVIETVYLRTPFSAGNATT
Procedure: Ten flasks of 70% confluent A549 cells were infected with HAdV-C5, HAdV-A31, or HAdV-B35. After initial inoculation, unbound virus was washed away, and approximately 30 ml of fresh medium (DMEM plus 20 mM HEPES [N-2-hydroxyethylpiperazine-NN-2-ethanesulfonic acid] plus 5% FBS) was added. At 48 h after infection, the cells were harvested by scraping into a small volume of DMEM, centrifuged, and resuspended in 6 ml of DMEM. The collected cells were lysed and the sample cleared by centrifugation. Virus was separated from soluble viral components by a CsCl gradient, as described previously ([59]). After ultracentrifugation, the top phase containing soluble viral components was recovered, and HAdV hexons were purified using monoclonal hexon antibodies (MAB8052) covalently attached to magnetic protein A/G beads (Pierce) using dimethyl pimelimidate (DMP) according to the manufacturer’s instructions. Bound hexons were washed three times using PBS to remove protein bound unspecifically, followed by elution in 50 μl of 200 mM glycine buffer at pH 2.5.
CM5 sensor chips, an amine-coupling kit, and HBS-EP+ buffer (10 mM HEPES, 150 mM NaCl, 3 mM EDTA, and 0.005% [vol/vol] surfactant P20 [pH 7.4]) were all purchased from GE Healthcare. All surface plasmon resonance (SPR) experiments were performed at 25°C in HBS-EP+ running buffer with adenovirus hexons immobilized on the sensor surface. […]

Substance | effect on HAdV-C5 binding to A549 cells (in words) [1] | effect on HAdV-C5 transduction of A549 cells (in words) [2] | Kd [3]
hLfcin18-42: human lactoferricin 18-42, solid-phase synthesis, cyclized in a two-step approach (KCFQWQRNMRKVRGPPVSCIKRDSP; not fully specified (bridges); also: cyclized in a two-step approach, kind and places not given here; UniProt P02788 37-61, looked up, fragment) | no or little effect | no or little effect | 
GRRRRSVQWCAVSQPEATKCFQWQRNMRKVRGPPVSCIKRDSPIQCIQA (disulfide 10-46, 20-37) [hLfcin1-49, human lactoferricin] |  |  | 730 ± 206 nM
bLfcin17-31: bovine lactoferricin 17-31, standard solid-phase peptide synthesis (FKCRRWQWRMKKLGA; UniProt P24627 36-50, looked up, fragment) [reference compound] | no or little effect | no or little effect | 
bLfcin17-42: bovine lactoferricin 17-42, purchased from the Center for Food Technology (FKCRRWQWRMKKLGAPSITCVRRAFA; ends and bridges not checked; cysteine pairing not given here; UniProt P24627 36-61, looked up, fragment) [reference compound] | no or little effect | no or little effect | 
